# Results: ChEMBL document CHEMBL5500325, “Identification of ethyl-6-bromo-2((phenylthio)methyl)imidazo[1,2-a]pyridine-3-carboxylate as a narrow spectrum inhibitor of Streptococcus pneumoniae and its FtsZ” (Eur J Med Chem, 2024)
# pIC50: −log10 of the molar value. Calls of active or inactive are those of the source. The rule behind the calls is not given here.
# Key:
# Bacillus subtilis [1] = assay: Antibacterial activity against Bacillus subtilis 168 assessed as inhibition of bacterial growth at 10 uM incubated for 6 hrs by agar plate assay; format: functional, organism-based
# Streptococcus pneumoniae [2] = assay: Antibacterial activity against Streptococcus pneumoniae TIGR4 assessed as inhibition of bacterial growth at 10 uM incubated for 24 hrs by agar plate assay; format: functional
# Staphylococcus aureus [3] = assay: Antibacterial activity against Staphylococcus aureus assessed as inhibition of bacterial growth incubated for 16 to 24 hrs by CLSI based microdilution assay; format: functional; settings: time 16-24 hrs
# Acinetobacter baumannii = assay: Antibacterial activity against Acinetobacter baumannii ATCC 19606 assessed as inhibition of bacterial growth incubated for 18 hrs by microbroth dilution method; format: functional
# [4] = Antiproliferative activity against human HeLa cells assessed as inhibition of cell growth incubated for 24 hrs by SRB assay; format: toxicity, cell-based
# [5] = target: T1, Cell division protein FtsZ (Streptococcus pneumoniae serotype 2 (strain D39 / NCTC 7466)) (UniProt A0A0H2ZNE0); assay: Inhibition of Streptococcus pneumoniae FtsZ assessed as time required to start of polymerization at 40 uM pretreated for 20 mins followed by GTP addition and measured for 20 mins by tryptophan fluorescence based spectrofluorometric analysis (reference value: 37 +/-18 sec); settings: time 40.0 min
# T1 sequence (whole entry): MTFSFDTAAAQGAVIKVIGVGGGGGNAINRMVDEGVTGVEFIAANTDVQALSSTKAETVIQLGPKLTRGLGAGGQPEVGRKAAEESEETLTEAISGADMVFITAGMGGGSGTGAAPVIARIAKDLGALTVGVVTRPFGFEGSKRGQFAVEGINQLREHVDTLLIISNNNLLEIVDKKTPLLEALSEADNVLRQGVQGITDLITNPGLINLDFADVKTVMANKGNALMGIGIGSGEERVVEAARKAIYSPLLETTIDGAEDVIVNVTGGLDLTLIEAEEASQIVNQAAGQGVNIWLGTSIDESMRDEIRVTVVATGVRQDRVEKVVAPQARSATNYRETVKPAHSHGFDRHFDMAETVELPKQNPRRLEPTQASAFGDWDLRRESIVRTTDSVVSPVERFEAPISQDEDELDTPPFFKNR
# Streptococcus pneumoniae [6] = assay: Antibacterial activity against Streptococcus pneumoniae TIGR4 assessed as inhibition of bacterial proliferation incubated for 24 hrs by CLSI based analysis; format: functional, organism-based
# [7] = target: T1, Cell division protein FtsZ (Streptococcus pneumoniae serotype 2 (strain D39 / NCTC 7466)); assay: Inhibition of Streptococcus pneumoniae FtsZ assessed as increase in GTPase activity by measuring increase in inorganic phosphate release upto 20 uM pretreated for 20 mins followed by GTP addition and measured after 10 mins by malachite green assay based UV-Vis spectrophometry; settings: time 30.0 min
# Staphylococcus aureus [8] = assay: Antibacterial activity against Staphylococcus aureus assessed as inhibition of bacterial growth at 10 to 20 uM incubated for 4 hrs; format: functional, organism-based; settings: dose 10-20 µM
# [9] = target: T1, Cell division protein FtsZ (Streptococcus pneumoniae serotype 2 (strain D39 / NCTC 7466)); assay: Inhibition of Streptococcus pneumoniae FtsZ polymerization assessed as length of polymers at 40 uM preincubated for 20 mins followed by GTP addition for 200 secs and later incubated on copper-TEM grid for 5 mins by transmission electron microscopy (reference value: 61 +/-26 nm); settings: time 1700.0 sec
# Streptococcus pyogenes = assay: Antibacterial activity against Streptococcus pyogenes assessed as inhibition of bacterial growth at 10 to 20 uM incubated for 20 hrs; format: functional, organism-based; settings: dose 10-20 µM
# Streptococcus pneumoniae [10] = assay: Bactericidal activity against Streptococcus pneumoniae TIGR4 assessed as induction of cell death by measuring proportion of PI-stained bacteria at 20 ug/ml incubated for 12 hrs by propidium iodide staining based confocal microscopy (reference value: 2%); format: functional; settings: dose 20 µg/ml
# Vibrio cholerae = assay: Antibacterial activity against Vibrio cholerae assessed as inhibition of bacterial growth at 10 to 20 uM incubated for 4 hrs; format: functional, organism-based; settings: dose 10-20 µM
# Klebsiella pneumoniae = assay: Antibacterial activity against Klebsiella pneumoniae assessed as inhibition of bacterial growth at 10 to 20 uM incubated for 4 hrs; format: functional, organism-based; settings: dose 10-20 µM
# [11] = target: T1, Cell division protein FtsZ (Streptococcus pneumoniae serotype 2 (strain D39 / NCTC 7466)); assay: Inhibition of Streptococcus pneumoniae FtsZ assessed as inhibition of extent of polymerization at 30 uM pretreated for 20 mins followed by GTP addition and measured for 20 mins by light scattering based analysis; settings: time 40.0 min
# [12] = target: T1, Cell division protein FtsZ (Streptococcus pneumoniae serotype 2 (strain D39 / NCTC 7466)); assay: Inhibition of Streptococcus pneumoniae FtsZ polymerization at 5 to 40 uM pretreated for 20 mins followed by GTP addition and measured for 20 mins by tryptophan fluorescence based spectrofluorometric analysis; settings: dose 5-40 µM, time 40.0 min
# Bacillus subtilis [13] = assay: Antibacterial activity against Bacillus subtilis 168 assessed as inhibition of bacterial growth at 10 to 20 uM incubated for 4 hrs; format: functional, organism-based; settings: dose 10-20 µM
# [14] = target: T1, Cell division protein FtsZ (Streptococcus pneumoniae serotype 2 (strain D39 / NCTC 7466)); assay: Inhibition of Streptococcus pneumoniae FtsZ assessed as inhibition of rate of polymerization at 40 uM pretreated for 20 mins followed by GTP addition and measured for 20 mins by tryptophan fluorescence based spectrofluorometric analysis; settings: time 40.0 min
# [15] = target: T1, Cell division protein FtsZ (Streptococcus pneumoniae serotype 2 (strain D39 / NCTC 7466)); assay: Inhibition of Streptococcus pneumoniae FtsZ assessed as inhibition of extent of polymerization at 40 uM pretreated for 20 mins followed by GTP addition and measured for 20 mins by light scattering based analysis; settings: time 40.0 min
# Streptococcus pneumoniae [16] = assay: Induction of DNA nucleoid segregation in Streptococcus pneumoniae at 40 uM incubated for 30 mins by DAPI staining based immunostaining analysis; format: functional, organism-based
# Escherichia coli = assay: Antibacterial activity against Escherichia coli K12 assessed as inhibition of bacterial growth at 10 to 20 uM incubated for 4 hrs; format: functional, organism-based; settings: dose 10-20 µM
# Streptococcus pneumoniae [17] = assay: Induction of membrane disruption in Streptococcus pneumoniae TIGR4 at 40 uM incubated for 30 mins by FM4-64 live cell staining based confocal microscopy; format: functional, organism-based
# Streptococcus pneumoniae [18] = assay: Bactericidal activity against Streptococcus pneumoniae TIGR4 assessed as induction of cell death by measuring proportion of PI-stained bacteria at 40 ug/ml incubated for 12 hrs by propidium iodide staining based confocal microscopy (reference value: 2%); format: functional; settings: dose 40 µg/ml
# [19] = target: T1, Cell division protein FtsZ (Streptococcus pneumoniae serotype 2 (strain D39 / NCTC 7466)); assay: Inhibition of Streptococcus pneumoniae FtsZ polymerization at 20 uM preincubated for 20 mins followed by GTP addition for 3 mins by atomic force microscopy; settings: time 23.0 min
# [20] = target: T1, Cell division protein FtsZ (Streptococcus pneumoniae serotype 2 (strain D39 / NCTC 7466)); assay: Inhibition of FtsZ in Streptococcus pneumoniae assessed as propotion of cells with intact Z-ring at 40 uM incubated for 30 mins by DAPI staining based immunostaining analysis (reference value: 92%); set-up: scale not given: the % may be the effect or the level left
# [21] = target: T1, Cell division protein FtsZ (Streptococcus pneumoniae serotype 2 (strain D39 / NCTC 7466)); assay: Inhibition of FtsZ in Streptococcus pneumoniae assessed as improper distribution of FtsZ throughout the cells at 40 uM incubated for 30 mins by DAPI staining based immunostaining analysis
# [22] = target: T1, Cell division protein FtsZ (Streptococcus pneumoniae serotype 2 (strain D39 / NCTC 7466)); assay: Inhibition of Streptococcus pneumoniae FtsZ assessed as rate of polymerization at 40 uM pretreated for 20 mins followed by GTP addition and measured for 20 mins by tryptophan fluorescence based spectrofluorometric analysis (reference value: 0.19 +/-0.02 au/s); settings: time 40.0 min
# [23] = target: T1, Cell division protein FtsZ (Streptococcus pneumoniae serotype 2 (strain D39 / NCTC 7466)); assay: Inhibition of Streptococcus pneumoniae FtsZ polymerization assessed as very short and thin polymers at 40 uM preincubated for 20 mins followed by GTP addition for 200 secs and later incubated on copper-TEM grid for 5 mins by transmission electron microscopy; settings: time 1700.0 sec
# Bacillus subtilis [24] = assay: Antibacterial activity against Bacillus subtilis; format: functional
# Staphylococcus aureus [25] = assay: Antibacterial activity against Staphylococcus aureus; format: functional
# [26] = system: Mycobacterium tuberculosis; assay: Antibacterial activity against Mycobacterium tuberculosis H37; format: functional
# [27] = target: T1, Cell division protein FtsZ (Streptococcus pneumoniae serotype 2 (strain D39 / NCTC 7466)); assay: Inhibition of Streptococcus pneumoniae FtsZ assessed as increase in GTPase activity by measuring increase in inorganic phosphate release at >20 uM pretreated for 20 mins followed by GTP addition and measured after 10 mins by malachite green assay based UV-Vis spectrophometry; settings: time 30.0 min
# Bacillus subtilis [28] = assay: Antibacterial activity against Bacillus subtilis 168 assessed as inhibition of bacterial growth incubated for 6 hrs by agar dilution method; format: functional
# Streptococcus pneumoniae [29] = assay: Antibacterial activity against Streptococcus pneumoniae TIGR4 assessed as inhibition of bacterial growth incubated for 24 hrs by agar dilution method; format: functional
compound,measurement,setting,value
CCOC(=O)c1c(CSc2ccccc2)nc2ccc(Br)cn12,Activity,Bacillus subtilis [1],inactive
same,inhibition at 10 µM,Streptococcus pneumoniae [2],25%
CCOC(=O)c1c(CSc2ccc(Br)cc2)nc2ccc(Br)cn12,Activity,Bacillus subtilis [1],inactive
same,inhibition at 10 µM,Streptococcus pneumoniae [2],0%
CCOC(=O)c1c(CSc2ccc(Cl)cc2)nc2ccc(Br)cn12,Activity,Bacillus subtilis [1],inactive
same,inhibition at 10 µM,Streptococcus pneumoniae [2],17%
CCOC(=O)c1c(CSc2ccncc2)nc2ccc(Br)cn12,Activity,Bacillus subtilis [1],inactive
same,inhibition at 10 µM,Streptococcus pneumoniae [2],31%
NC(=O)c1c(F)ccc(OCc2nc3cc(C(F)(F)F)cnc3s2)c1F,MIC,Staphylococcus aureus [3],2 µg/mL
Cc1nc2ccccc2n1C(=O)/C=C/c1ccc(Br)cc1,MIC,Acinetobacter baumannii,32 µg/mL
CCOC(=O)c1c(CSc2ccc(OC)cc2)nc2ccc(Br)cn12,Activity,Bacillus subtilis [1],inactive
same,IC50 at 24 h,[4],41 µM
same,TIME,[5],0.0644 h
same,pIC50,"Streptococcus pneumoniae [6]; TIGR4, 24 h",4.77
same,MIC,"Streptococcus pneumoniae [6]; TIGR4, time 24 hrs",20 µg/mL
same,inhibition,[7],Active
same,Activity,Staphylococcus aureus [8],inactive
same,Activity,[9],13 nm
same,Activity,Streptococcus pyogenes,Active
same,Activity,Streptococcus pneumoniae [10],17%
same,Activity,Vibrio cholerae,inactive
same,Activity,Klebsiella pneumoniae,inactive
same,inhibition,[11],34%
same,inhibition,[12],Active
same,Activity,Bacillus subtilis [13],inactive
same,inhibition,[14],75%
same,inhibition,[15],59%
same,Activity,Streptococcus pneumoniae [16],inactive
same,Activity,Escherichia coli,inactive
same,Activity,Streptococcus pneumoniae [17],inactive
same,Activity,Streptococcus pneumoniae [18],28%
same,inhibition,[19],Active
same,Activity,[20],46%
same,inhibition,[21],54%
same,INH,[22],0.05 AU/sec
same,inhibition at 10 µM,Streptococcus pneumoniae [2],67%
same,inhibition,[23],Active
CCOC(=O)c1c(CSc2nc3ccccc3[nH]2)nc2ccc(Br)cn12,Activity,Bacillus subtilis [1],inactive
same,inhibition at 10 µM,Streptococcus pneumoniae [2],37%
CC1=CC(=O)c2ccccc2C1=O [MENADIONE],inhibition at 10 µM,Streptococcus pneumoniae [2],100%
NC(=O)c1c(F)ccc(OCc2nc3cc(Cl)cnc3s2)c1F,MIC,Bacillus subtilis [24],1 µg/mL
same,MIC,Staphylococcus aureus [25],0.5 µg/mL
CCOC(=O)c1c(CSc2ccccc2Br)nc2ccc(Br)cn12,Activity,Bacillus subtilis [1],inactive
same,inhibition at 10 µM,Streptococcus pneumoniae [2],0%
CCOC(=O)c1c(CSc2ccc([N+](=O)[O-])cc2)nc2ccc(Br)cn12,Activity,Bacillus subtilis [1],inactive
same,inhibition at 10 µM,Streptococcus pneumoniae [2],0%
CC(NC(=O)c1nc2ccccc2n1-c1ccccc1)c1ccccc1 (stereo unspecified),MIC,Bacillus subtilis [24],1.56 µg/mL
same,MIC,[26],0.78 µg/mL
CCOC(=O)c1c(CSc2ccccc2OC)nc2ccc(Br)cn12,Activity,Bacillus subtilis [1],inactive
same,inhibition at 10 µM,Streptococcus pneumoniae [2],17%
CCOC(=O)c1c(CSc2ccc3ccccc3c2)nc2ccc(Br)cn12,Activity,Bacillus subtilis [1],inactive
same,inhibition,[12],Active
same,inhibition,[27],inactive
same,inhibition at 10 µM,Streptococcus pneumoniae [2],54%
O=C(CCc1ccc(O)cc1)C1=C(O)C(Cc2ccc(O)cc2)CCC1 (stereo unspecified),MIC,Bacillus subtilis [28],~3.8 µg/mL
same,MIC,Streptococcus pneumoniae [29],~0.7 µg/mL
